Biological target: T1, KRAS G12C 1-169, his-tagged protein, GDP-loaded (Homo sapiens, UniProt P01116, G12C)
T1 construct: KRAS G12C 1-169, his-tagged protein, GDP-loaded
Assay: Covalent binding (% modification) to KRAS G12C by mass spectrometry; further: test concentration or dose not given here

[1] = covalent binding to KRAS G12C after a three minute incubation period
[2] = covalent binding to KRAS G12C after a ten minute incubation period

## C=CC(=O)N1C[C@H](C)N(c2nc(N3CC(N(C)C)C3)nc3c(F)c(-c4ccc(Cl)cc4F)c(Cl)cc23)C[C@H]1C [Compound 161, 1-((2R,5S)-4-(6-chloro-7-(4-chloro-2-fluoro-phenyl)-2-(3-(dimethylamino)azetidin-1-yl)-8-fluoroquinazolin-4-yl)-2,5-dimethyl-piperazin-1-yl) prop-2-en-1-one]
[1]
  Binding %: + (+ indicates binding activity greater than 0% and up to 50%)

## C=CC(=O)N1C[C@H](C)N(c2nc(OCCn3ccnc3)nc3c(F)c(-c4c(O)cccc4F)c(Cl)cc23)C[C@H]1C [Compound 232, 1-((2R,5S)-4-(2-(2-(1H-imidazol-1-yl)ethoxy)-6-chloro-8-fluoro-7-(2-fluoro-6-hydroxyphenyl)quinazolin-4-yl)-2,5-dimethyl-piperazin-1-yl) prop-2-en-1-one]
[1]
  Binding %: ++ (++ indicates binding activity from 50 to 90%)

## C=CC(=O)N1C[C@H](C)N(c2nc(OCCN3CC(F)(F)C3)nc3c(F)c(-c4c(O)cccc4F)c(Cl)cc23)C[C@H]1C (atropisomer, axis not shown) [Compound 84, 1-((2R,5S)-4-((S)-6-chloro-2-(2-(3,3-difluoroazetidin-1-yl)ethoxy)-8-fluoro-7-(2-fluoro-6-hydroxyphenyl)quinazolin-4-yl)-2,5-dimethyl-piperazin-1-yl) prop-2-en-1-one]
[2]
  Binding %: +++ (+++ indicates binding activity greater than 90%)

## C=CC(=O)N1CCN(c2nc(CNCc3ncccn3)nc3c(F)c(-c4c(O)cccc4F)c(Cl)cc23)C[C@H]1C [Compound 95, 1-((2R)-4-(6-chloro-8-fluoro-7-(2-fluoro-6-hydroxyphenyl)-2-(((pyrimidin-2-ylmethyl)amino)methyl)quinazolin-4-yl)-2-methyl-piperazin-1-yl) prop-2-en-1-one]
[1]
  Binding %: ++ (++ indicates binding activity from 50 to 90%)

## C=CC(=O)N1CCN(c2nc(N3CC(N(C)C)C3)nc3c(F)c(-c4c(C)ccc5cn[nH]c45)c(Cl)cc23)C[C@H]1C (atropisomer, axis not shown) [Compound 70, 1-((R)-4-((R)-6-chloro-2-(3-(dimethylamino)azetidin-1-yl)-8-fluoro-7-(6-methyl-1H-indazol-7-yl)quinazolin-4-yl)-2-methyl-piperazin-1-yl) prop-2-en-1-one]
[2]
  Binding %: +++ (+++ indicates binding activity greater than 90%)

## C=CC(=O)N1C[C@@H](C)N(c2nc(OCCN(CC)CC)nc3c(F)c(-c4c(O)cccc4F)c(Cl)cc23)[C@@H](C)C1 [Compound 16, 1-((3S,5R)-4-(6-chloro-2-(2-(diethylamino)ethoxy)-8-fluoro-7-(2-fluoro-6-hydroxyphenyl)quinazolin-4-yl)-3,5-dimethylpiperazin-1-yl)prop-2-en-1-one]
[2]
  Binding %: ++ (++ indicates binding activity from 50 to 90%)

## C=CC(=O)N1C[C@H](C)N(c2nc(OCCN3CC(F)(F)C3)nc3c(F)c(-c4c(O)cccc4F)c(Cl)cc23)C[C@H]1C [Compound 38, 1-((2R,5 S)-4-(6-Chloro-2-(2-(3,3-Difluoroazetidin-1-Yl)Ethoxy)-8-Fluoro-7-(2-Fluoro-6-Hydroxyphenyl)Quinazolin-4-Yl)-2,5-Dimethylpiperazin-1-Yl)Prop-2-En-1-One]
[2]
  Binding %: +++ (+++ indicates binding activity greater than 90%)

## C=CC(=O)N1CCN(c2nc(OCCN3CC(F)(F)C3)nc3c(F)c(-c4c(O)cccc4F)c(Cl)cc23)[C@@H](C)C1 [Compound 11, 1-((3S)-4-(6-chloro-2-(2-(3,3-difluoroazetidin-1-yl)ethoxy)-8-fluoro-7-(2-fluoro-6-hydroxyphenyl)quinazolin-4-yl)-3-methylpiperazin-1-yl)prop-2-en-1-one]
[2]
  Binding %: +++ (+++ indicates binding activity greater than 90%)

## C=CC(=O)N1C[C@H](C)N(c2nc(N3CC(N(C)C)C3)nc3c(F)c(-c4c(C)ccc5[nH]ncc45)c(Cl)cc23)C[C@H]1C [Compound 54, 1-((2R,5S)-4-(6-chloro-2-(3-(dimethylamino)azetidin-1-yl)-8-fluoro-7-(5-methyl-1H-indazol-4-yl)quinazolin-4-yl)-2,5-dimethyl-piperazin-1-yl) prop-2-en-1-one]
[2]
  Binding %: +++ (+++ indicates binding activity greater than 90%)

## C=CC(=O)N1C[C@H](C)N(c2nc(OCCN(CC)CC)nc3c(F)c(-c4c(C)ccc5cn[nH]c45)c(Cl)cc23)C[C@H]1C (atropisomer, axis not shown) [Compound 156, 1-((2R,5S)-4-(6-chloro-2-(2-(diethylamino)ethoxy)-8-fluoro-7-((R)-6-methyl-1H-indazol-7-yl)quinazolin-4-yl)-2,5-dimethyl-piperazin-1-yl) prop-2-en-1-one]
[1]
  Binding %: +++ (+++ indicates binding activity greater than 90%)

## [2H]C([2H])([2H])N(C1CN(c2nc(N3C[C@@H](C)N(C(=O)C=C)C[C@@H]3C)c3cc(Cl)c(-c4c(O)cccc4F)c(F)c3n2)C1)C([2H])([2H])[2H] [Compound 196, 1-((2R,5S)-4-(2-(3-(bis (trideuteromethyl)amino)azetidin-1-yl)-6-chloro-8-fluoro-7-(2-fluoro-6-hydroxyphenyl)quinazolin-4-yl)-2,5-dimethyl-piperazin-1-yl) prop-2-en-1-one]
[1]
  Binding %: +++ (+++ indicates binding activity greater than 90%)

## C=CC(=O)N1CCN(c2nc(N3CC(N(C)C)C3)nc3c(F)c(-c4c(C)ccc5cn[nH]c45)c(Cl)cc23)C[C@H]1C [Compound 69, 1-((2R)-4-(6-chloro-2-(3-(dimethylamino)azetidin-1-yl)-8-fluoro-7-(6-methyl-1H-indazol-7-yl)quinazolin-4-yl)-2-methyl-piperazin-1-yl) prop-2-en-1-one]
[2]
  Binding %: +++ (+++ indicates binding activity greater than 90%)

## C=CC(=O)N1[C@H](C)CN(c2nc(N3CC(N(C)C)C3)nc3c(F)c(-c4c(C)ccc5[nH]ncc45)c(Cl)cc23)C[C@@H]1C [Compound 39, 1-((2R,6S)-4-(6-chloro-2-(3-(dimethylamino)azetidin-1-yl)-8-fluoro-7-(5-methyl-1H-indazol-4-yl)quinazolin-4-yl)-2,6-dimethyl-piperazin-1-yl) prop-2-en-1-one]
[2]
  Binding %: ++ (++ indicates binding activity from 50 to 90%)

## C=CC(=O)N1C[C@H](C)N(c2nc(N3CC(N)C3)nc3c(F)c(-c4c(O)cccc4F)c(Cl)cc23)C[C@H]1C [Compound 92]
[1]
  Binding %: ++ (++ indicates binding activity from 50 to 90%)

## C=CC(=O)N1[C@H](C)CN(c2nc(N3CC(N(C)C)C3)nc3c(F)c(-c4c(O)cccc4F)c(Cl)cc23)C[C@@H]1C [Compound 67, 1-((2R,6S)-4-((S)-6-chloro-2-(3-(dimethylamino)azetidin-1-yl)-8-fluoro-7-(2-fluoro-6-hydroxyphenyl)quinazolin-4-yl)-2,6-dimethyl-piperazin-1-yl) prop-2-en-1-one]
[2]
  Binding %: + (+ indicates binding activity up to 50%)

## C=CC(=O)N1[C@H](C)CN(c2nc(N3CC(N(C)C)C3)nc3c(F)c(-c4c(O)cccc4F)c(Cl)cc23)C[C@@H]1C [Compound 68, 1-((2R,6S)-4-((R)-6-chloro-2-(3-(dimethylamino)azetidin-1-yl)-8-fluoro-7-(2-fluoro-6-hydroxyphenyl)quinazolin-4-yl)-2,6-dimethyl-piperazin-1-yl) prop-2-en-1-one]
[2]
  Binding %: +++ (+++ indicates binding activity greater than 90%)

## C=CC(=O)N1CCN(c2c(C#N)c(N3CC(N(C)C)C3)nc3c(F)c(-c4c(O)cccc4F)c(Cl)cc23)C[C@H]1C [Compound 76]
[2]
  Binding %: + (+ indicates binding activity up to 50%)

## C=CC(=O)N1C[C@H](C)N(c2nc(OCCc3ccccn3)nc3c(F)c(-c4c(O)cccc4F)c(Cl)cc23)C[C@H]1C [Compound 65, 1-((2R,5S)-4-(6-chloro-8-fluoro-7-(2-fluoro-6-hydroxyphenyl)-2-(2-(pyridin-2-yl)ethoxy)quinazolin-4-yl)-2,5-dimethyl-piperazin-1-yl) prop-2-en-1-one]
[2]
  Binding %: +++ (+++ indicates binding activity greater than 90%)

Source: patent US10646488B2 (Araxes Pharma LLC, priority 2016, dated 2020)
